Entries after “also recorded” stand apart in the source; their conditions may differ.
Assays:
Assay in all cases: 5-Fluorouridine (5-FUrd) toxicity assay
Format in all cases: cell-based
[1] = system: purine auxotrophic yeast (ade2Δ, fui1Δ); settings: ade2Δ strain; 500 μM adenine plus 125 μM 5-FUrd; OD600 at 24 h
Method: (§1) 5-FUrd toxicity was measured in a subset of the PfENT1 mutants. Mutants were grown overnight in SDM with 1 mM adenine. Meanwhile, purine auxotrophic yeast were grown in YPD overnight. Yeast strains were spun down and resuspended in sterile water then added to the honeycomb plates with SDM media with NP40 (final concentration of 0.1%) containing either no adenine, 500 μM adenine, or 500 μM adenine plus 125 μM 5-FUrd (Fisher Scientific Cat. #AAJ6208303) with an initial OD600 = 0.05 and a final volume of 150 μL. Typically, 10 μL of yeast (final concentration of resuspended yeast OD600 = around 0.8) were added to 140 μL of media. Each trial contained triplicates. The 100-well honeycomb plate was placed in the Bioscreen C for 24-h under continuous high shaking at 30°C. The endpoint OD600 was measured at 24 h. Each experiment was repeated at least three times on separate days.

[2] = system: yeast expressing WT PfENT1; settings: 500 μM adenine plus 125 μM 5-FUrd, OD600 at 24 h
Method: as §1

[3] = system: yeast expressing Q135C PfENT1; settings: 500 μM adenine plus 125 μM 5-FUrd, OD600 at 24 h
Method: as §1

[4] = system: yeast expressing D287C PfENT1; settings: 500 μM adenine plus 125 μM 5-FUrd, OD600 at 24 h
Method: as §1

[5] = system: yeast expressing S290C PfENT1; settings: 500 μM adenine plus 125 μM 5-FUrd, OD600 at 24 h
Method: as §1

[6] = system: yeast expressing N51C PfENT1; settings: 500 μM adenine plus 125 μM 5-FUrd, OD600 at 24 h
Method: as §1

[7] = system: yeast expressing L50C PfENT1; settings: 500 μM adenine plus 125 μM 5-FUrd, OD600 at 24 h
Method: as §1

[8] = system: yeast expressing W53C PfENT1; settings: 500 μM adenine plus 125 μM 5-FUrd, OD600 at 24 h
Method: as §1

[9] = system: yeast expressing F286C PfENT1; settings: 500 μM adenine plus 125 μM 5-FUrd, OD600 at 24 h
Method: as §1

[10] = system: yeast expressing R291C PfENT1; settings: 500 μM adenine plus 125 μM 5-FUrd, OD600 at 24 h
Method: as §1

O=c1[nH]c(=O)n([C@@H]2O[C@H](CO)[C@@H](O)[C@H]2O)cc1F [5-FUrd, 5-Fluorouridine]
5-FUrd assay [1]: growth-non-functional | 5-FUrd assay [2]: did not grow; also recorded: killed-functional | 5-FUrd assay [3]: did grow; also recorded: growth-non-functional* | 5-FUrd assay [4]: did grow; also recorded: growth-non-functional* | 5-FUrd assay [5]: did grow; also recorded: growth-non-functional* | 5-FUrd assay [6]: did not grow; also recorded: killed-functional | 5-FUrd assay [7]: did not grow; also recorded: killed-functional | 5-FUrd assay [8]: did grow; also recorded: growth-non-functional* | 5-FUrd assay [9]: did not grow; also recorded: killed-functional | 5-FUrd assay [10]: did grow; also recorded: growth-non-functional*
